Experiments:
[1] = test system: mice; assay: Pentylenetetrazole (PTZ) induced behavioral effects and seizures in mice; format: in vivo; conditions: Fendiline 1.0 to 50 mg/kg (po), PTZ 10 to 70 mg/kg (ip)
Protocol: In good agreement with the above receptors affinities and its molecular pharmacological properties, Fendiline, at 1.0 to 50 mg/kg, (po), in mice antagonized all the behavioral effects (in mice) corresponding to the symptoms, in humans, announcing the development of the neurodegenerative and neurodevelopmental diseases, i.e., anxiety, fear, social disconnection, agressivity, compulsive reactions, hypermotility, stereotypic activity, pain, lethargy and seizures, appearing at various degrees according to the amplitude of the Glutamate/GABA imbalance and to the brain regions (Basal Ganglia, Hippocampus, Cortex) affected by the above imbalance. Indeed, all the above behavioral effects (obtained, in mice, by administration of the GABAergic antagonist Pentylenetetrazole (PTZ) at 10 to 70 mg/kg, intraperitoneal (ip): with 10 to 40 mg/kg (ip) giving fear, anxiety, social disconnection, and agressivity, hypermotility and stereotypies—the latter being better expressed by previous (reserpine induced) hypersensibilisation of the brain DA receptors—and seizures (obtained at 50 to 70 mg/kg (ip) of PTZ), were antagonized by Fendiline at 1.0 to 50 mg/kg (po).

[2] = test system: sodium channels; assay: allosteric modulation of sodium channels; conditions: σ1 induced
[3] = test system: cholinergic muscarinic receptors; assay: modulation of muscarinic receptors; conditions: σ1 induced
[4] = test system: GABA (A) receptors; assay: allosteric modulation of GABA (A) receptors
[5] = test system: mice; assay: Maximal Electroshock tonic extension; conditions: mouse, in vivo
[6] = target: T1, sigma-1(σ1) receptor (Mus musculus, UniProt O55242); assay: sigma-1 agonistic/antagonistic activity in mice; format: in vivo
T1 construct: from tissue; host or cells: whole animal (mice, oral administration)

[7] = test system: GABA (B) receptors; assay: allosteric modulation of GABA (B) receptors
[8] = test system: mice; assay: PTZ clonic convulsions and fatal tonic crises in mice; format: in vivo
[9] = test system: N-methyl-D-aspartic acid (NMDA) glutamatergic receptors; assay: allosteric modulation of NMDA receptors; conditions: σ1 induced
[10] = neuropathic pain animal models; format: in vivo; conditions: appropriate animal models

T1 sequence (O55242 whole entry): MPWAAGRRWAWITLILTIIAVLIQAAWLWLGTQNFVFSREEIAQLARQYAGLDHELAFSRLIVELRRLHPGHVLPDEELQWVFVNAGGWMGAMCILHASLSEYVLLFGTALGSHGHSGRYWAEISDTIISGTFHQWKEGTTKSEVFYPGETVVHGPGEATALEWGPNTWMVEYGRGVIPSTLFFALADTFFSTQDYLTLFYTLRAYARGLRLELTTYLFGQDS

Question: With `CC(NCCC(c1ccccc1)c1ccccc1)c1ccccc1` (stereo not shown) [Fendiline, 3,3-diphenyl-N-(1-phenylethyl) propan-1-amine] as the molecule, how does the “effect on PTZ induced behavioral effects (fear, anxiety, social disconnection, agressivity, hypermotility, stereotypies, seizures)” value [1] read?
Answer: The value was “antagonized”.

Question: And the “modulation of sodium channels” value [2]?
Answer: Its value is “negative allosteric modulations”.

Question: And the “modulation of cholinergic muscarinic receptors” value [3]?
Answer: The value was “discreet negative modulation”.

Question: And the “modulation of GABA (A) receptors” value [4]?
Answer: The value was “allosteric positive modulation”.

Question: What about the “protection against fatal tonic crises (tonic extensions), Maximal Electrochock” value [5] of the same molecule?
Answer: The value was “did not protect”.

Question: And the “sigma-1 activity at low doses” value ([6]; 0,003 to 1.0 mg/kg per os (po), in mice)?
Answer: Its value is “partial agonistic activity”.

Question: What about the “sigma-1 activity at higher doses” value ([6]; more than 1.0 mg/kg (po) in mice) of the same molecule?
Answer: The value was “antagonistic”.

Question: What about the sigma-1 intrinsic activity ([6]; mouse, in vivo) of the same molecule?
Answer: The sigma-1 intrinsic activity was “low intrinsic activity”.

Question: What about the “modulation of GABA (B) receptors” value [7] of the same molecule?
Answer: Its value is “allosteric positive modulation”.

Question: What about the “protection against fatal tonic crises (tonic extensions), high doses of PTZ” value ([8]; PTZ more than 80 mg/kg (ip), in mice) of the same molecule?
Answer: The value was “did not protect”.

Question: And the “protection against PTZ clonic convulsions” value ([8]; mice)?
Answer: Its value is “did not protect”.

Question: What about the “modulation of NMDA glutamatergic receptors” value [9] of the same molecule?
Answer: Its value is “negative allosteric modulations”.

Question: What about the “effect against neuropathic pain” value [10] of the same molecule?
Answer: The value was “analgesic effect”.

From patent US20180193289A1, “PROTOTYPICAL MOLECULAR PHARMACOLOGIC PROFILE OF FENDILINE AGAINST NEURODEGENERATIVE AND NEURODEVELOPMENTAL DISEASES” (priority 2016, published 2018)
